Results as given in patent US20240307325A1, “COMPOUNDS, COMPOSITIONS, AND METHODS FOR TREATING OR AMELIORATING NONALCOHOLIC FATTY LIVER DISEASE AND RELATED DISEASES OR DISORDERS” (Thomas Jefferson University, priority 2021, published 2024).

Experiments:
[1] = Oral bioavailability; details: in vivo
[2] = test system: HFD fed mice; assay: High fat diet-induced hepatic steatosis and whitening of brown adipose tissue in mice; assay type: in vivo; details: versus vehicle, H&E staining
Text: FIG. 6A illustrate certain aspects of the study design. […] FIG. 6B show H&E staining images of liver from mice in FIG. 6A. […] Representative images from H&E-stained BAT of mice after an 8-week HFD. Images taken at 14×, scalebar=200 um.
(§1) Refer to FIGS. 5 and 6A-6C, pharmacological inhibition of Sigma1 phenocopy certain aspects of Sigma1 knockdown. […] The small molecule inhibitor IPAG also eliminate oleic acid, cholesterol, and glucose induced lipid droplets by lipophagy (FIG. 5).

[3] = test system: IL-17; assay: Pro-inflammatory cytokine levels in HT-29 cells: IL-17; assay type: cell-based, human
Text: (§2) The fibrosis associated pro-inflammatory cytokines include soluble IL-6, TNFα, and IL-17, which are contributors to the progression of NAFLD to NASH with fibrosis.

[4] = biological target: Sigma1 (Homo sapiens, UniProt Q99720); details: read-out: Ki (binds Sigma1)
Chain of Sigma1 (Q99720 whole entry): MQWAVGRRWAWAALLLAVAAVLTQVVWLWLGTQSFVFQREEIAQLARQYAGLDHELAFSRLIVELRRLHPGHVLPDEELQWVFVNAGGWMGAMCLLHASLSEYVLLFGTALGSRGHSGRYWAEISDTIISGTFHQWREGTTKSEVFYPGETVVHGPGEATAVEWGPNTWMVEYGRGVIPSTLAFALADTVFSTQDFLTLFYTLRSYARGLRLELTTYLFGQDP

[5] = test system: mouse; assay: Tumor xenograft experiments with daily oral dosing: tolerability; assay type: in vivo; details: daily oral dosing extended beyond 4 weeks
[6] = test system: liver; details: even at doses that exceed the concentrations proposed herein; cited from earlier work
[7] = test system: CEREP Safety 44 panel; assay: CEREP Safety 44 panel screen
[8] = test system: TNFα; assay: Pro-inflammatory cytokine levels in HT-29 cells: TNFα; assay type: cell-based, human
Text: as §2

[9] = test system: lipid droplets; assay: Oleic acid, cholesterol and glucose induced lipid droplets; assay type: cell-based; details: by lipophagy
Text: as §1

[10] = test system: LNCaP cells; assay: DHT-induced lipid droplet formation and accumulation in LNCaP cells (confocal, HCS-LipidTox stain); assay type: cell-based; details: 72 h 1 nM DHT, compound 10 uM for the final 16 hours
Description: FIGS. 4A-4B illustrate the finding that Sigma1 (σ1) knockdown by transduction of SIGMAR1 targeted shRNA using a lentiviral vector abrogates lipid droplet (LD) accumulation, in accordance with some embodiments. FIG. 4A: Confocal micrographs of LNCaP cells treated with 72 hours (72 h) with dihydrotestosterone (DHT) to induce the formation and accumulation of LDs. Non-specific Control shRNA was compared to SIGMAR1 transcript selective shRNAs in lentiviral vectors. σ1 shR #4=MISSION/SigmaAldrich clone TRCN0000061010: σ1 shR #5=MISSION/SigmaAldrich clone TRCN0000061008. White boxes indicate areas magnified and shown immediately below. Note nearly complete elimination of LDs. FIG. 4B: Immunoblot confirming knockdown of Sigma1 by lentiviral Sigma1 (σ1) shRNAs. LDs are stained with HCS-LipidTox fluorescent stain in red. Blue DAPI stained nuclei.
FIG. 5 illustrates the finding that pharmacological Sigma1 modulator/inhibitor 1-(4-Iodophenyl)-3-(2-adamantyl)guanidine (IPAG) eliminates lipid droplets (LDs), in accordance with some embodiments. Confocal micrographs of LNCaP cells treated with 72 hours (72 h) with 1 nM dihydrotestosterone (DHT) to induce the formation and accumulation of LDs. In the far right panel, the LNCaP cells were treated with a prototypic Sigma1 selective small molecule compound, IPAG (10 uM), for the final 16 hours of the 72 h DHT treatment period. […]

Row | Structure (SMILES) | oral bioavailability [1] | level of whitening of brown adipose tissue ([2]; HFD fed mice (8-week HFD), oral) | level of liver fat ([2]; HFD fed mice, oral (PO 3 days per week)) | level of IL-17 [3] | Ki [4] | changes in mouse behavior [5] | changes in mouse body weight [5] | liver toxicity [6] | off-target liabilities [7] | level of TNFα [8] | oleic acid, cholesterol, and glucose induced lipid droplets [9] | lipid droplets (LDs) [10]
1 | N=C(NCCCOc1ccc(F)cc1)Nc1ccc(Cl)cc1 [CT-189, 1-(3-(4-fluorophenoxy)propyl)-3-(4-chlorophenyl)guanidine] | orally bioavailable | significantly reduced | significantly reduced | suppresses levels | 38 nM | no detectable changes | no detectable changes | does not induce liver toxicity | limited off-target liabilities | suppresses levels | – | –
2 | N=C(Nc1ccc(I)cc1)NC1C2CC3CC(C2)CC1C3 (stereo not drawn) [IPAG, 1-(4-Iodophenyl)-3-(2-adamantyl)guanidine] | – | – | – | – | – | – | – | – | – | – | eliminate | eliminates
